Experimental data as given in US20010047524A1, “Methods and tissue culture media for inducing somatic embryogenesis, agrobacterium-mediated transformation and efficient regeneration of cacao plants” (priority 1997, published 2001).

Tested on: staminode and petal base explants of cacao genotype Sca-6
Experiment: Somatic embryogenesis from cacao floral explants cultured on PCG medium containing various concentrations of TDZ
Type: cell-based, Theobroma cacao L.
Description: Primary callus growth (PCG) medium was prepared by combining the following solutions and compounds (per liter): 100 ml each DKW macro solutions A and B, 10 ml DKW micro solution, 1 ml DKW vitamin solution, 20 g glucose, 250 mg glutamine, 100 mg myo-inositol, 100 ml 2,4-D solution, 10 ml TDZ solution, and 2.0 g phytagel, and the pH was adjusted to 5.8.
The staminodes and petal base explants from the four flower buds were then transferred into a Petri dish containing 30 ml of PCG medium. Any fused staminodes and petal base explants were separated and explants were distributed evenly across the medium. The Petri dishes were sealed with a double layer of parafilm and cultures were maintained in the dark at 25±2° C. for 14 days (FIG. 2a). Growth reduction, senescence, and tissue browning may occur with subculture intervals longer than 14 days.
The staminode and petal base explants were then transferred from a PCG medium to a Petri dish containing 30 ml of SCG medium. The dishes were sealed and the cultures were maintained in the dark for 14 days at 25±2° C. Globular calli were produced on the entire tissue explant at the end of this culture period (FIG. 2b).
Staminode and petal base explants and calli derived in the callus induction step were transferred to Petri dishes containing 30 ml of ED medium. Explants were cultured in the dark for 14 days at 25±2° C. Explants were then subcultured onto the fresh ED medium and maintained in the dark for another 14 days. By that time, numerous somatic embryos at globular and heart-shaped stages of development were visible on the embryogenic calli (FIG. 2c and d).
The effect of TDZ concentration on somatic embryogenesis from staminode explants of five cacao genotypes was determined and is shown in FIG. 3. Staminodes were cultured on PCG medium containing various concentrations of TDZ. […] Data were collected two months after culture initiation. Each treatment contained 20 staminodes per plate with three replicate plates. The values shown in FIG. 3 represent the average percentage rates of embryo-producing staminodes from three repeated experiments. Up to 100% of cultured staminode and over 60% of petal base explants from cacao genotype Sca-6 produced somatic embryos (FIG. 3).
The effect of TDZ concentration on somatic embryo production from staminode explants of five cacao genotypes was determined and is shown in FIG. 4. Staminodes were cultured on PCG medium containing various concentrations of TDZ. […] Data were collected two months after culture initiation. Each treatment contained 20 staminodes per plate with three replica plates. Values represent the average number of somatic embryos per responsive staminode from three repeated experiments. […]

[1] = two months after culture initiation, FIG. 4

O=C(Nc1ccccc1)Nc1cnns1 [TDZ, thidiazuron]
petal base explants that produced somatic embryos (FIG. 3): over 60%
cultured staminode explants that produced somatic embryos (PCG medium with various TDZ concentrations, then SCG and ED medium, two months after culture initiation, FIG. 3): Up to 100%
average number of primary somatic embryos per responsive staminode [1]: about 46
primary somatic embryos produced by a single staminode explant (maximum) [1]: up to 140
